Columns and labels:
EMT6 = assay: Tumor growth inhibition, animal model for breast cancer II (EMT6); format: in vivo, BALB/c mice; details: Experimental Example 14, Dunnione 40 mg/kg oral every day from 11th day, Anti-CTLA4 antibody 200 μg/head i.p. 2 times a week from 11th day, Lapatinib 100 mg/kg oral every day from 11th day
Method: (§1) All mice used in the experiments were raised in a sterile animal room with constant temperature (22° C. to 26° C.) and constant humidity (55% to 60%), acclimatized for 1 week while sufficiently supplying typical solid feed (Samtako Inc., Korea) and water, and then used. All experiments were conducted after obtaining approval from the Institutional Animal Care and Use Committee in accordance with the laboratory animal care and ethics regulations of the Institutional Animal Care and Use Committee of Wonkwang University.
(§2) 7-week-old BALB/c or C57BL/6 mice were used, and subcutaneously inoculated using a 1-mL insulin syringe within 30 minutes after mixing the mouse cancer cells with 0.2 mL of PBS.
(§3) After the cancer cell line was subcutaneously implanted, the administration of drugs was started when the size of the cancer reached 50 to 100 mm^3. The volumes (mm^3) of the tumors, which were generated after the inoculation, were measured at intervals of 3 days using a caliper, calculation was performed using the formula of […], and then the results thereof were compared. […]

MC38 [1] = assay: Survival rate analysis, animal model for colorectal cancer I (MC38); format: in vivo, C57BL/6 mice
Method: After subcutaneous implantation of the cancer cell line, the survival rate was measured by recording the number of mice that died in each group every day. The measurement of survival rate was performed until the death of all mice in all groups or the death of all mice in the control. The average survival day was calculated by obtaining a survival curve using the survival rate.
After sole administration or co-administration of respective drugs was performed according to the administration schedules listed in Tables 36 and 37 below, the survival rates and the average survival days were calculated according to the survival rate analysis method described in Example 3.1, and the results thereof are respectively shown in Tables 36 and 37 and FIGS. 33 and 34.

LL/2 = assay: Tumor growth inhibition, animal model for lung cancer II (LL/2); format: in vivo, C57BL/6 mice; details: Experimental Example 31; LL/2 lung cancer II; dunnione 40 mg/kg oral daily from 6th day; anti-PD-1 antibody 100 μg/head, carboplatin 25 mg/kg + pemetrexed 100 mg/kg intraperitoneal 2 times a week, 3 times in total
Method: as §1, §2, §3

MC38 [2] = assay: Tumor growth inhibition, animal model for colorectal cancer I (MC38); format: in vivo, C57BL/6 mice
Method: as §1, §2
After the cancer cell line was subcutaneously implanted, the administration of drugs was started when the size of the cancer reached 50 to 100 mm^3. The volumes (mm^3) of the tumors, which were generated after the inoculation, were measured at intervals of 3 days using a caliper, calculation was performed using the formula of […], and then the results thereof were compared.
In addition, sole administration or co-administration of respective drugs was performed according to the administration schedules listed in Tables 4 to 34 below, the tumor volumes were then measured according to the tumor proliferation assessment method described in Example 1.1, the tumor growth inhibition rates (TGI (O)=(Vc−Vt)/Vc×100(%); Vc: tumor volume of control, Vt tumor volume of experimental group) were calculated based the tumor volumes, and the results thereof are shown in the respective tables and FIGS. 1 to 31.

CT26 = assay: Tumor growth inhibition, animal model for colorectal cancer II (CT26); format: in vivo,  mice; details: Dunnione 40 mg/kg oral every day from 6th day, 4 times
Method: as §1, §2, §3

[3] = Experimental Example 34, dunnione 40 mg/kg oral daily from 6th day, anti-PD-1 antibody 200 μg/head intraperitoneal 2 times a week from 6th to 62nd day, 5-fluorouracil 50 mg/kg intraperitoneal once on 6th day

SMILES: CC1OC2=C(C(=O)C(=O)c3ccccc32)C1(C)C (centres unmarked) [Dunnione, 2,3,3-trimethyl-2H-benzo[g][1]benzofuran-4,5-dione]
- TGI (%) (EMT6): 9.7%
- Survival rate (%) on 38th day after cancer implantation (MC38 [1]; Experimental Example 33, dunnione 40 mg/kg oral daily from 4th day, anti-PD-1 antibody 100 μg/head + anti-CTLA4 antibody 100 μg/head intraperitoneal, oxaliplatin 6 mg/kg + 5-fluorouracil 50 mg/kg intraperitoneal at intervals of 15 days, 3 times): 10%
- Average survival day (MC38 [1]; [3]): 28 days
- Total survival period (MC38 [1]; [3]): 22 to 45
- TGI (%) (LL/2): 23.5%
- TGI (%) (MC38 [2]; Experimental Example 1, Dunnione 40 mg/kg oral every day from 5th day, Anti-PD-1 antibody 200 μg/head i.p. at intervals of 3 days from 5th day, 4 times, Oxaliplatin 6 mg/kg + 5-Fluorouracil 50 mg/kg i.p. once on 5th day): 8.1%
- TGI (%) (MC38 [2]; Experimental Example 2, Dunnione 40 mg/kg oral every day from 5th day, Anti-CTLA4 antibody 200 μg/head i.p. at intervals of 3 days from 5th day, 4 times, Oxaliplatin 6 mg/kg + 5-Fluorouracil 50 mg/kg i.p. once on 5th day): 7.6%
- TGI (%) (MC38 [2]; Experimental Example 3, Dunnione 40 mg/kg oral every day from 4th day, Anti-PD-1 antibody 100 ug/head + Anti-CTLA4 antibody 100 μg/head i.p. at intervals of 3 days from 4th day, 4 times, Oxaliplatin 6 mg/kg + 5-Fluorouracil 50 mg/kg i.p. once on 4th day): 5.3%
- TGI (%) (MC38 [2]; Experimental Example 4, Dunnione 40 mg/kg oral every day from 7th day, Anti-LAG3 antibody 200 μg/head i.p. on 7th, 10th, 14th, 17th days, Oxaliplatin 6 mg/kg i.p. on 7th and 14th days): 13.1%
- TGI (%) (MC38 [2]; Experimental Example 5, Dunnione 40 mg/kg oral every day from day of cancer cell implantation, Anti-PD-1 antibody 200 μg/head i.p. at intervals of 3 days from 7th day, 4 times): 28.5%
- TGI (%) (MC38 [2]; Experimental Example 6, Dunnione 40 mg/kg oral every day from 7th day, Anti-PD-1 antibody 100 μg/head i.p. 2 times a week from 7th day, 4 times, Regorafenib 10 mg/kg oral every day from 7th day): 36.8%
- TGI (%) (MC38 [2]; Experimental Example 7, Dunnione 40 mg/kg oral every day from 6th day, Anti-PD-1 antibody 100 μg/head i.p. 2 times a week from 6th day, 2 times, Abemaciclib 75 mg/kg oral every day from 6th day): 9.9%
- TGI (%) (CT26; Experimental Example 8, Irinotecan 4.626 mg/kg + Leucovorin 10.28 mg/kg + 5-Fluorouracil 61.68 mg/kg i.p. 2 times a week from 6th day): 21.2%
- TGI (%) (CT26; Experimental Example 9, Anti-PD-1 antibody 200 μg/head i.p. 2 times a week from 6th day): 25.5%

Reference: patent US20230255904A1, “PHARMACEUTICAL COMPOSITION FOR PREVENTING OR TREATING CANCER COMPRISING NAPHTHOQUINONE-BASED COMPOUND AND IMMUNE CHECKPOINT INHIBITOR AS ACTIVE INGREDIENTS” (NADIANBIO LTD., priority 2020, published 2023)
